Reference: ChEMBL document CHEMBL1201862, “PubChem BioAssay data set” (2004)
Calls of active or inactive are those of the source. Cut-off read from the data, not from the text of the source, for most assays here: actives have a measured EC50 and inactives only a lower limit.

How the values were obtained:
[1] = Luminescence Cell-Based Dose Response HTS to Identify Activators of Luciferase Translation or Activity in H4 […] Cells. [Related pubchem assays: 1829 (Project Summary), 1814 (Primary HTS)]; assay type: functional
[2] = system: H4; experiment: Luminescence Cell-Based Dose Response HTS to Identify Activators of 5'UTR Stem-Loop Driven Prion Protein mRNA Translation in H4 Neuroglioblastoma Cells. [Related pubchem assays: 1829 (Project Summary), 1814 (Primary HTS)]; assay type: functional; settings: Homo sapiens
[3] = Luminescence Cell-Based Dose Confirmation HTS to Identify Activators of 5'UTR Stem-Loop Driven Alpha-Synuclein mRNA Translation in H4 Neuroglioblastoma Cells. [Related pubchem assays: 1829 (Project Summary), 1814 (Primary HTS)]; assay type: functional
[4] = cells; assay type: functional
[5] = biological target: T1, Streptokinase A (Streptococcus pyogenes serotype M1, UniProt P10520); experiment: S. pyogenes streptokinase expression inhibitors, potency, dose response, plasminogen activation absorbance, OD405 (AID 1914); assay type: functional, Streptococcus pyogenes M1 GAS;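 note: secreted streptokinase activity via plasminogen activation per viability signal from cell pellet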
T1 sequence (P10520 whole entry): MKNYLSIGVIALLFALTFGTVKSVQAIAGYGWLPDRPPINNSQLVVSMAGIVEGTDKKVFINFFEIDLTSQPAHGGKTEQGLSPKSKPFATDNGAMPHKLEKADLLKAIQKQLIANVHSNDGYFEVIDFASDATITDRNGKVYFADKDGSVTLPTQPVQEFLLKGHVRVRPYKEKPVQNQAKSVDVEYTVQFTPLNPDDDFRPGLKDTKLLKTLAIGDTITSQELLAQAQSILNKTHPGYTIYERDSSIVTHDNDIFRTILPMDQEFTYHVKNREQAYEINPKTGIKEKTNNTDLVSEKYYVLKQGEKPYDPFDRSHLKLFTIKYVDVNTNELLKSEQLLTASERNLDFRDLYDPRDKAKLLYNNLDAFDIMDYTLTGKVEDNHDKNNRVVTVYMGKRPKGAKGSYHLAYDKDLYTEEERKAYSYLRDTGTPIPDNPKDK

[6] = biological target: T2, Protein RecA (Mycobacterium tuberculosis, UniProt P9WHJ3); experiment: Fluorescence Cell-Free Homogeneous Dose Retest to Identify Inhibitors of RecA-Intein Splicing Activity. [Related pubchem assays (depositor defined):AID2097, AID2223, AID489010, AID492950]; assay type: functional
T2 sequence (P9WHJ3 whole entry): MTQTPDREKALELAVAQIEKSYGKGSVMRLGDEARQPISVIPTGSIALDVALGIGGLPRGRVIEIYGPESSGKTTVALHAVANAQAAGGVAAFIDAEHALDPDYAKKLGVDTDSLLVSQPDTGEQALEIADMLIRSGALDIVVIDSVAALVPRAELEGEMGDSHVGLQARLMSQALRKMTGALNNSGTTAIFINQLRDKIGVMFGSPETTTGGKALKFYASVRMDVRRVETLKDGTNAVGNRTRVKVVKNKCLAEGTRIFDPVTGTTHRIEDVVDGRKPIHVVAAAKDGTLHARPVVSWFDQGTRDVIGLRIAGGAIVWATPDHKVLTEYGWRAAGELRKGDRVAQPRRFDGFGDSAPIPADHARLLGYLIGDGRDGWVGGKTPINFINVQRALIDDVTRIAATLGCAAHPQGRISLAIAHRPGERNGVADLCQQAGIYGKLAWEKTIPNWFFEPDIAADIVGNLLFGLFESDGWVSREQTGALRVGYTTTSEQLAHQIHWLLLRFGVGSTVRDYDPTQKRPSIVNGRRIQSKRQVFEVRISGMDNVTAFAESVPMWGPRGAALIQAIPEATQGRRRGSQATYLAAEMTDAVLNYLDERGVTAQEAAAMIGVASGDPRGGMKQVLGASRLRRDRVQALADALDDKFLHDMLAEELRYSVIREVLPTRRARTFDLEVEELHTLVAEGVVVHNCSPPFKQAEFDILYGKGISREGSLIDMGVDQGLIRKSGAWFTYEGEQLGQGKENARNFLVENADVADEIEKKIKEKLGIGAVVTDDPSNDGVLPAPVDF

[7] = biological target: Cytochrome P450 2D6 (Homo sapiens, UniProt P10635);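 note: CYP2D6 member of a cytochrome P450 panel assay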
[8] = biological target: Cytochrome P450 3A4 (Homo sapiens, UniProt P08684);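 note: CYP3A4 tested as one member of a cytochrome P450 panel screen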
[9] = biological target: T3, Replicative DNA helicase DnaB (Mycobacterium tuberculosis, UniProt P9WMR3); experiment: DnaB intein splicing inhibitors, dose response, biochemical, cell-free fluorescence (AID 449749); assay type: functional
T3 sequence (P9WMR3 whole entry): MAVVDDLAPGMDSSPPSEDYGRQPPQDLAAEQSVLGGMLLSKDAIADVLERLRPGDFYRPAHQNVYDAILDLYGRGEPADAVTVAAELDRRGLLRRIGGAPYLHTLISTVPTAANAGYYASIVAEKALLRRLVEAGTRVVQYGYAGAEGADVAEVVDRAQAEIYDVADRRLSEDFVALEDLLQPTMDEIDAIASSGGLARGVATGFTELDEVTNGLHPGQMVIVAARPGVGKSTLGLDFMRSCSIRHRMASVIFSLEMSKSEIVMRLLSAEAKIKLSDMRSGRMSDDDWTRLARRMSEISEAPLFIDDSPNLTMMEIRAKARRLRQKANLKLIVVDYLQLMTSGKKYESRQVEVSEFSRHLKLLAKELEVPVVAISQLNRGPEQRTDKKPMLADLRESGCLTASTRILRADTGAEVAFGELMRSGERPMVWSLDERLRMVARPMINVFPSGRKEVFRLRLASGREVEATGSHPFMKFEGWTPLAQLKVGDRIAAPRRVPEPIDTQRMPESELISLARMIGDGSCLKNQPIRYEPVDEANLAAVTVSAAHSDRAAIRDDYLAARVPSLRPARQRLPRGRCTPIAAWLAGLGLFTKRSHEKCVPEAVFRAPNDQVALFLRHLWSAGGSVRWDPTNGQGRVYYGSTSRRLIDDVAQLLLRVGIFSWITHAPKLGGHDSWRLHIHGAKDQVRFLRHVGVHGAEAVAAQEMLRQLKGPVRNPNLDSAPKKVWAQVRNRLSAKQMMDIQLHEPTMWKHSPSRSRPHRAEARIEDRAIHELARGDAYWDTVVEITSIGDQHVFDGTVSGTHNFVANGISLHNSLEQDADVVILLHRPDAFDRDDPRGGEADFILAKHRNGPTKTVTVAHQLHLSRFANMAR

[10] = system: Streptococcus; experiment: Group A Streptococcus viability loss, dose response, counter-screen for streptokinase expression inhibitor project, luminescence, BacTiterGlo (AID 1915); assay type: functional, organism-based;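 note: potency for reduction of bacterial viability or growth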
[11] = system: Streptococcus sp. 'group A'; experiment: growth inhibition of control SK(-) GAS strain, dose response, counter-screen for streptokinase expression inhibitor project, luminescence, kanamycin, BacTiterGlo, confirmation (AID 1900); assay type: functional, organism-based
[12] = biological target: T4, Heat shock factor protein 1 (Mus musculus, UniProt P38532); experiment: inhibition of MG132-induced HSE-luciferase signal, confirmation, cell-based, NIH3T3, luminescence, dose retest (AID 2382); assay type: functional;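 note: NIH3T3 fibroblasts with HSF1-driven luciferase reporter stressed by proteasome inhibitor MG132; luminescence from HSF1-driven luciferase expression after 8 hours of MG132 stress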
T4 sequence (P38532 whole entry): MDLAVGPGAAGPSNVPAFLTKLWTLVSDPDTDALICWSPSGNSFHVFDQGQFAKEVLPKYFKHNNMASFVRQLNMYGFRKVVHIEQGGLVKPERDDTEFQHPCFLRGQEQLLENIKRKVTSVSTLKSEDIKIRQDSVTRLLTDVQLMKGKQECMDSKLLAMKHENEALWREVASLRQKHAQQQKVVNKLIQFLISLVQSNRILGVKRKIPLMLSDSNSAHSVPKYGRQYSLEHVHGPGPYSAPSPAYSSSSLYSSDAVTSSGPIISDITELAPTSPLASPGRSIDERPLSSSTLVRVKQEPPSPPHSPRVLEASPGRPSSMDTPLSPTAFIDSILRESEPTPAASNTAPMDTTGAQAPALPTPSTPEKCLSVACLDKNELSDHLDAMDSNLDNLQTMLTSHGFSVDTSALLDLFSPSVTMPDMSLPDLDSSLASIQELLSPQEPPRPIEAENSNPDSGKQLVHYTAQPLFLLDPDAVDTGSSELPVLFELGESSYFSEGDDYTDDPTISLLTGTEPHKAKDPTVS

Sequence of Cytochrome P450 2D6 (P10635 whole entry): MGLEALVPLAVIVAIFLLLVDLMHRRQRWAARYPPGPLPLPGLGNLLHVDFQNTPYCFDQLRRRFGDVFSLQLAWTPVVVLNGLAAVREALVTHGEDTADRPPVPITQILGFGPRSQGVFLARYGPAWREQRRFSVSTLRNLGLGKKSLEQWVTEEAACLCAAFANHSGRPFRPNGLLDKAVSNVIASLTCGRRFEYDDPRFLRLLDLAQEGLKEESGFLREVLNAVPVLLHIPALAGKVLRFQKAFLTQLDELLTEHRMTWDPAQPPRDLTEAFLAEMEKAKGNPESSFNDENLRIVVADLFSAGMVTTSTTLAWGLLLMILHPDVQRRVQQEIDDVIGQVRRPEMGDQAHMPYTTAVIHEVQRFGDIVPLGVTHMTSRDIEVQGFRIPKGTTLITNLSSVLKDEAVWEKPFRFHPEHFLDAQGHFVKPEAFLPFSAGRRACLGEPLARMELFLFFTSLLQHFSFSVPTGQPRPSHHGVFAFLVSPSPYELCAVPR
Sequence of Cytochrome P450 3A4 (P08684 whole entry): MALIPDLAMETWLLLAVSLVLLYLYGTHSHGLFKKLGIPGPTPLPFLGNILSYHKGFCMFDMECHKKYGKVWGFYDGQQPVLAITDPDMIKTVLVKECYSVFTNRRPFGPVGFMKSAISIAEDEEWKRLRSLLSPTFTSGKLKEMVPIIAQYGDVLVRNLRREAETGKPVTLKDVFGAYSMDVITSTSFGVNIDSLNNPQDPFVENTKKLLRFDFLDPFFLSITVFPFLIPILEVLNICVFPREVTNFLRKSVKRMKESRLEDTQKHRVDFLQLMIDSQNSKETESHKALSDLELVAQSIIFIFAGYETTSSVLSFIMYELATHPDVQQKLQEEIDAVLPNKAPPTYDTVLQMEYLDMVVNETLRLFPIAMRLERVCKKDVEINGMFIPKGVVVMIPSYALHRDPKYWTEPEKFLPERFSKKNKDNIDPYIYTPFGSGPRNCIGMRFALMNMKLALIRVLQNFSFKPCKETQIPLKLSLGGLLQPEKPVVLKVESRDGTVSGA

In the case of S=C(Nc1ccc(Br)cc1Cl)N1CCC2(CC1)OCCO2, the EC50 [1] is reported as 23.5 µM (active), the EC50 [2] is reported as 16 µM (active) and the EC50 [3] is reported as > 120 µM (not active).
In the case of CCc1ccc(N2CCN(CCNC(=O)Nc3ccc(OC)cc3)CC2)cc1, the IC50 [4] is reported as 38.2 µM (active).
For O=C(Nc1c(F)cc(F)cc1Br)c1cc(-c2ccccc2)on1, the IC50 [4] was 4 µM (active).
For O=C(c1ccccc1)[C@H]1[C@H](c2ccccc2)[C@@]2(N=C(c3ccccc3)OC2=O)C2c3ccccc3C=NN21 (stereo partly specified), the EC50 [1] was 19 µM (active), the EC50 [2] was > 120 µM (not active) and the EC50 [3] was 6.71 µM (active).
In the case of CCOc1ccc(-c2nc3ccccc3c(=O)o2)cc1, the IC50 [4] is reported as 7.01 µM (active).
For Cc1nn(C(=O)c2cccnc2)c(C)c1Sc1ccc(Br)cc1, the EC50 [5] was > 150 µM (not active), the EC50 [6] was 18.7 µM (active) and the AC50 [7] was 25.1 µM (inconclusive). The AC50 [8] was 15.8 µM (inconclusive), the AC50 [9] was 4.61 µM (active) and the EC50 [10] was > 150 µM (not active). For the same compound, the EC50 [11] was 11.1 µM (active).
For O=C(Nc1cc(Cl)ccc1-n1cncn1)c1ccc([N+](=O)[O-])o1, the EC50 [5] was 56.7 µM (inconclusive), the EC50 [10] was > 150 µM (not active) and the EC50 [11] was 11.7 µM (active). The EC50 [1] was > 120 µM (not active), the EC50 [2] was > 120 µM (not active) and the EC50 [3] was > 120 µM (not active).
In the case of Cc1ccnc(NC(=O)CCc2c[nH]c3ccccc23)c1, the IC50 [4] is reported as 21.6 µM (active).
For C(=N\Nc1nc(-c2ccccc2)cs1)/c1cccnc1, the EC50 [1] was 33.3 µM (active), the EC50 [2] was 44.1 µM (active) and the EC50 [3] was 0.198 µM (active).
With CC(C)NC(=O)c1[nH]nc2c1CCc1ccccc1-2 the EC50 [1] was 56 µM (active), the EC50 [2] was 8.82 µM (active) and the EC50 [3] was 5.26 µM (active).
With O=C(NNC(=O)c1ccccc1F)c1ccc(-c2ccc(Cl)cc2)o1 the IC50 [4] was 8.21 µM (active).
For CC(C)N(Cc1nccn1C)C(=O)CCc1nnc(CCCc2ccccc2)o1, the EC50 [1] was 15.5 µM (active), the EC50 [2] was 31.2 µM (active) and the EC50 [3] was 12.7 µM (active).
In the case of CC(C)(C)C(=O)Nc1ccc(N=Nc2ccccc2)cc1, the EC50 [6] is reported as 2.85 µM (active), the EC50 [12] is reported as < 0.16 µM (active) and the AC50 [9] is reported as 4.35 µM (active).
In the case of O=[N+]([O-])c1ccc(/C=C2\CCC(C3=CCCC3)=C2N2CCOCC2)cc1, the EC50 [1] is reported as > 120 µM (not active), the EC50 [2] is reported as > 120 µM (not active) and the EC50 [3] is reported as > 120 µM (not active).
For Cc1ccc(NC(=O)c2ocnc2C)cc1Cl, the EC50 [1] was 1.04 µM (active), the EC50 [2] was 6.44 µM (active) and the EC50 [3] was 0.145 µM (active).
For CSc1ccc(/C=C(/NC(=O)c2ccccc2)C(=O)N2CCN(C)CC2)cc1, the EC50 [1] was > 120 µM (not active), the EC50 [2] was > 60 µM (not active) and the EC50 [3] was > 120 µM (not active).
In the case of CCCn1c(N)c(Sc2ccc(C)cc2)c(=O)n(CCC)c1=O, the EC50 [1] is reported as > 120 µM (not active), the EC50 [2] is reported as > 120 µM (not active) and the EC50 [3] is reported as > 120 µM (not active).
For O=C(c1ccccc1)c1c[nH]c(C(=O)C(Cl)(Cl)Cl)c1, the EC50 [6] was 8.23 µM (active) and the AC50 [9] was 21.7 µM (active).
With COc1cc(/C=N/n2c(C)nnc2S)ccc1OCc1ccc(F)cc1 the EC50 [1] was > 120 µM (not active), the EC50 [2] was 32 µM (active) and the EC50 [3] was > 120 µM (not active).
For CNC(=O)COC(=O)c1ccc(-c2nc3ccccc3s2)s1, the IC50 [4] was 5.82 µM (active), the EC50 [1] was 0.764 µM (active) and the EC50 [2] was 56.3 µM (active).
For Cc1nn(Cc2ccccc2)c2c1C(c1ccco1)C(C#N)=C(N)O2 (stereo unspecified), the EC50 [6] was 3.15 µM (active) and the AC50 [9] was > 380 µM (inactive).
With O=C(c1ccc(F)cc1)c1ccc(-c2ccc(F)cc2)nc1 the EC50 [1] was 11.9 µM (active), the EC50 [2] was 11.6 µM (active) and the EC50 [3] was 4.41 µM (active).
